Experimental data from US12558329B2 (New York University, priority 2021, dated 2026).
“Also recorded” adds a separate entry of the source.

Test system: MIAPACA2 cells
Experiment: 18O2-GASSP labelling of MIAPACA2 cells treated with MG132, IOX1, DFO or ascorbate
Format: cell-based, human
Method: As additional controls, MIAPACA2 cells were treated with an iron chelator (DFO, FIG. 5E-5F), a proteasome inhibitor (MG132) to induce proteotoxic stress, and physiological levels of ascorbate, an antioxidant, to determine the effects of ROS on ^18O-labelling. Labelling of ^18O γ-butyrobetaine was blocked by IOX1 and DFO, consistent with the fact that trimethyllysine hydroxylase (TMLH) is an iron-dependent dioxygenase (FIGS. 7A-7D). […] Total levels of ^18O labelled methionine sulfoxide increased upon MG132 treatment and decreased following ascorbate treatment (FIGS. 7I-7M)^10.
All steps involved in setting up labelling with ^18O2 were performed at room temperature and inside a chemical fume hood. The procedure may vary depending on the type and number of tissue culture plates in the chamber and the amount of media in the plates. Users must test the system by using ^16O2:CO2:N2 or other unlabelled gases to optimize conditions for their needs and avoid consumption of costly labelled gases. Cells were treated with or without 5 μM MG132, 500 μM IOX1, 250 μM DFO, or 70 μM ascorbate, before placing tissue culture plates into the modular incubator chamber (MIC) containing a wireless oxygen sensor and a 15 cm dish of water to maintain humidity. Next, the clamps were closed to form an air-tight seal between the lid and platform of the MIC. […] N2 flushing was repeated for a total of three times, or until the sensor in the chamber stabilized at 0% O2 for 10 minutes.
Next, the inlet valve was opened and the ^18O2:5% CO2:N2 gaseous mixture was flushed into the system at a rate of 2.5 L/min. Subsequently, the outlet valve was immediately opened to allow gas flow out of the chamber, and to release the pressure in the system. The chamber was injected with the ^18O2:5% CO2:N2 gaseous mixture for 1 minute before the inlet and outlet valves were closed simultaneously. The chamber was allowed to equilibrate for 5 minutes. This process was repeated seven times, or until the desired oxygen concentration was reached and was stable. For 3%, 1%, and 0.2% ^18O2 labelling studies, the chamber was infused with 5%:5%:90%, 1.5%:5%:93.5%, and 0.5%:5%:94.5% ^18O2:CO2:N2, respectively. The ^18O2-infused MIC was then placed in a 37° C., 5% CO2 tissue culture incubator for 24 hours. The oxygen concentration in the chamber was monitored regularly. Oxygen measurements after 20 hours was not feasible due to the battery life of the sensor. At the end of the experiment, the chamber was opened inside a chemical fume hood before metabolite extraction.
For metabolomics, briefly, cells were washed in 4° C. 0.9% saline and metabolites were extracted with 46% methanol:23% H2O:[…] chloroform that contained a labelled amino acid standard mix (MSK-A2-1.2, Cambridge Isotope Laboratories, Inc.). Enzymatic assay samples were extracted using 80% methanol: 20% H2O that contained labelled amino acid standards. Extracts were placed into 1.5 mL Eppendorf tubes, vortexed at 4° C. for 10 min and centrifuged at 4° C. for 10 min at 17,200×g in a microcentrifuge. The aqueous phase was transferred to vials for GC-MS or Eppendorf tubes for LC-MS. Polar samples were evaporated in a SpeedVac and samples were resolved by GC-MS or LC-MS. Lipid samples were dried using a stream of N2 (for ^18O labelling studies) or air. Metabolite and lipid extracts were submitted to the NYULMC Metabolomics Core Resource Laboratory.
For polar metabolomics, the LC column was a Millipore ZIC-pHILIC (2.1×150 […], 5 μm bead size) coupled to a Dionex UltiMate 3000 system. The column oven temperature was held at 25° C. The flow rate was 100 μL/min, and the injection volume was 1 μL. Buffer A was 10 mM ammonium carbonate in water, pH 9, and Buffer B was neat acetonitrile. The gradient profile was 80-20% B (0-30 min), 20-80% B (30-31 min), and 80-80% B (31-42 min). MS Analyses were carried out on a Thermo Q Exactive HF mass spectrometer using a heated electrospray ionization (HESI) source. […]

## O=C(O)c1ccc(O)c2ncccc12 [IOX1]
3%, 1%, 0.2% 18O2, 24 hours
  18O labelling of methionine: sensitive; also recorded: blocked
  18O labelling of γ-butyrobetaine: sensitive; also recorded: blocked
MIAPACA2, 3%, 1%, 0.2% 18O2, 24 hours, 500 μM IOX1, 250 μM DFO
  18O labelling of 4-HMA: sensitive; also recorded: significantly attenuated
MIAPACA2, 18O2 labelling, 24 hours, 500 μM IOX1, 250 μM DFO, 70 μM ascorbate
  4-HMA levels: significantly attenuated
